Values joined by “and” are separate entries in the source; they are usually repeats but may differ in a detail not shown here. Identical values can stand only once. Like-named read-outs stand apart in the source and are kept apart here.
Key:
[1] = test system: shCtrl/HCT116; experiment: Cell viability assay on shCtrl/HCT116 (control strain); format: cell-based, human; settings: 20 μM drug, C strain; for viability at 20 µM: Homo sapiens, HCT-116, remaining viability, read-out: shCtrl/HCT116 Cell Viability
[2] = molecular target: T1, ATG4B (Homo sapiens, UniProt Q9Y4P1); experiment: In vitro cleavage assay of ATG4B catalytic activity (western blot of tagged LC3B); format: biochemical; settings: read-out: inhibition on ATG4B's catalytic activity
[3] = test system: shATG4B/HCT116; experiment: Cell viability assay on shATG4B/HCT116 (ATG4B silencing strain); format: cell-based, human; settings: 20 μM drug, S strain; for viability at 20 µM: Homo sapiens, HCT-116, remaining viability, read-out: shATG4B/HCT116 Cell Viability
[4] = molecular target: T1, ATG4B; experiment: ATG4B enzyme activity assay by S-tag-based immunoblotting; format: biochemical; settings: read-out: inhibition of ATG4B catalysis
Description: Protein expression and purification for the study of prediction of the allosteric sites in ATG4B Human ATG4B with N-terminal 6xHis-tag and human LC3B with both N-terminal 6xHis-tag and C-terminal S-tag were cloned into pETDuet-1 expression plasmids as previously described (Shu, C W et al., 2010, Autophagy 6, 936-947), subsequently transformed into E. coli BL21 (ECOS 21, Yeastern Biotech Co., FYE207-40VL). A single colony harboring the correctly in-frame inserted gene was inoculated into an overnight culture that was then diluted 100-fold in fresh Luria-Bertani broth with 50 μg/mL ampicillin for growing at 37° C. with 200 rpm agitation for 2 to 3 hours until the optical density of the culture at 600 nm reaches 0.4 (around 3×10^8 cells/mL). […]
The expression cell culture was harvested by 12,000×g centrifugation at 4° C. for 20 minutes, and the cell pellets of 1 liter broth were resuspended in a 10 mL lysis buffer (50 mM Tris-HCl, pH 7.4, 300 mM NaCl, 20 mM imidazole). […] The protein purity was verified >90% by Coomassie blue staining on SDS-PAGE, and the quantity was measured by bicinchoninic acid assay.
ATG4B enzyme activity assay was analyzed by immunoblotting. […] The intensities of remaining substrate LC3B after enzymatic cleavage were quantified by the software ImageJ.

[5] = test system: AsPC-1; experiment: Cell viability assay (MTT) on AsPC-1; settings: for viability at 20 µM / IC50: Homo sapiens; for viability at 20 µM: ASPC1, read-out: AsPC-1 Cell Viability, remaining viability, 20 μM drug, normalized by blank control, three repeats; for AsPC-1 Cell Viability: remaining viability, 20 μM drug, normalized by blank control, three repeats
[6] = test system: HCT116; experiment: Cell viability assay on HCT116; format: cell-based, human; settings: for viability at 20 µM: Homo sapiens, HCT-116, remaining viability, read-out: HCT116 Cell Viability; for viability at 20 µM / HCT116 Cell Viability: 20 μM drug, normalized by blank control, three repeats; for HCT116 Cell Viability: remaining viability
[7] = test system: AK4.4; experiment: Cell viability assay (MTT) on AK4.4; settings: for IC50: Mus musculus
[8] = test system: AK4.4 pancreatic ductal adenocarcinoma (PDAC) xenograft; settings: dose of 20 mg/kg, I.P.
[9] = in vivo
[10] = molecular target: T2, ATG4B (Homo sapiens, UniProt Q9Y4P1); experiment: In vitro cleavage assay of ATG4B catalytic activity (western blot of tagged LC3B); format: biochemical
T2 sequence (Q9Y4P1 whole entry, looked up): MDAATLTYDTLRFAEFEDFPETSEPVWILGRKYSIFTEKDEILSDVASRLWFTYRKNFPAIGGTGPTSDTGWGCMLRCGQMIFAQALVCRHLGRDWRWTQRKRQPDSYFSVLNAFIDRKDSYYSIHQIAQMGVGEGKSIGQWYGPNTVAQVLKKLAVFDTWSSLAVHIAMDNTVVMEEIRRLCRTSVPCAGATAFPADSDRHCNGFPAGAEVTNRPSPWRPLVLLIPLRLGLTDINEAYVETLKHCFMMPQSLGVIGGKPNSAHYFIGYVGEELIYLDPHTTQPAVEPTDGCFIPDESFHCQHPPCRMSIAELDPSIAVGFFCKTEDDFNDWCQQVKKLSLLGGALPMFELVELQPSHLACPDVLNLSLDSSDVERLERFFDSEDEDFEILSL

[11] = molecular target: T2, ATG4B; experiment: ATG4B activity reporter assay (cleaved PLA2 fluorescence); format: biochemical; design: host or cells: in silico model from PDB 2Z0D
[12] = molecular target: LC3B substrate of the ATG4B activity reporter assays (cleavage releases PLA2), Q9GZQ8; experiment: cell-based or functional assay
[13] = Tc concentration for 50% reduction of viability in combination with 0.50 μM Mx
[14] = Tc concentration for 50% reduction of viability in combination with 1.00 μM Mx
[15] = Tc concentration for 50% reduction of viability in combination with 2.5 μM Vb
[16] = Tc concentration for 50% reduction of viability in combination with 5 μM Vb
[17] = Tc concentration for 50% reduction of viability in combination with 10 μM Vb

CO/N=C1\C[C@]2(C[C@@H]3C[C@@H](C/C=C(\C)C[C@@H](C)/C=C/C=C4\CO[C@@H]5[C@H](O)C(C)=C[C@@H](C(=O)O3)[C@]45O)O2)O[C@H](/C(C)=C/C(C)C)[C@H]1C [Moxidectin]
viability at 20 µM [1]: 1% | inhibition at 10 µM ([2]; 10 μM): 38% | viability at 20 µM [3]: 1% | shATG4B/HCT116 Cell Viability ([3]; remaining viability): 0.9 ± 0.1% | inhibition at 10 µM ([4]; 10 μM): 36% | inhibition at 20 µM ([4]; 20 μM): > 80% | viability at 20 µM [5]: 8% | IC50 ([5]; ASPC1, read-out: IC50, Mx, moxidectin alone, AsPC-1 (Table 13)): 1.38 µM | IC50 ([5]; ASPC1, read-out: IC50, Mx, moxidectin alone, AsPC-1 (Table 15)): 1.24 µM | CMx, 50 ([5]; Mx concentration in combination with Vb for a 50% reduction of the cell viability, listed as Mx): 0.50 µM and 1.00 µM | AsPC-1 Cell Viability [5]: 7.8 ± 0.8% | viability at 20 µM [6]: 2% | HCT116 Cell Viability [6]: 1.7 ± 0.1% | IC50 ([7]; read-out: IC50, Mx, moxidectin alone, AK4.4 (Table 12)): 1.07 µM | IC50 ([7]; read-out: IC50, Mx, moxidectin alone, AK4.4 (Table 14)): 0.87 µM | CMx, 50 ([7]; Mx concentration in combination with Tc for a 50% reduction of the cell viability, listed as Mx): 0.50 µM and 1.00 µM | CMx, 50 ([7]; Mx concentration in combination with Vb for a 50% reduction of the cell viability): 0.50 µM

Cc1ccc(C(=O)Nc2ccc(CN3CCN(C)CC3)c(C(F)(F)F)c2)cc1C#Cc1cnc2cccnn12 [Ponatinib]
viability at 20 µM [1]: 21% | shCtrl/HCT116 Cell Viability ([1]; remaining viability): 21.3 ± 0.6% | inhibition at 5 µM [2]: 30% | viability at 20 µM [3]: 31% | viability at 20 µM [5]: 47% | AsPC-1 Cell Viability [5]: 47.2 ± 1.3% | viability at 20 µM [6]: 19% | HCT116 Cell Viability [6]: 18.5 ± 0.6% | IC50 ([7]; read-out: IC50, Pn): 0.51 µM

Clc1ccc(C(Cn2ccnc2)OCc2ccsc2Cl)c(Cl)c1 (stereo not drawn) [tioconazole]
tumor size measured on day 16 versus control group [8]: less than half of the tumor size in the control group | liver weight, % of mouse body weight [9]: 5.69% | increase in the liver (relative organ weight) ([9]; mouse): 8% | increase in triglyceride as compared to the control ([9]; mouse): 25% | triglyceride ([9]; mouse): 198.2 mg/dL | IC50 ([5]; ASPC1, read-out: IC50, Tc, tioconazole alone, AsPC-1 (Table 9)): 13.5 µM | IC50 ([5]; ASPC1, read-out: IC50, Tc, tioconazole alone, AsPC-1 (Table 13)): 9.61 µM | CTc, 50 [5, 13]: 8.61 µM | CTc, 50 [5, 14]: 7.83 µM | CTc, 50 ([5]; Tc concentration for 50% reduction of viability in combination with 1.25 μM Mx): 5.65 µM | CTc, 50 [5, 15]: 8.14 µM | CTc, 50 [5, 16]: 6.32 µM | CTc, 50 [5, 17]: 5.21 µM | decrease of cell viability of HCT116 ([6]; human, 10 μM): 33% | IC50 ([7]; read-out: IC50, Tc, tioconazole alone, AK4.4 (Table 8)): 14 µM | IC50 ([7]; read-out: IC50, Tc, tioconazole alone, AK4.4 (Table 11)): 12.5 µM | IC50 ([7]; read-out: IC50, Tc, tioconazole alone, AK4.4 (Table 12)): 13 µM | CTc, 50 ([7]; Tc concentration for 50% reduction of viability in combination with 0.05 μM Pn): 12.31 µM | CTc, 50 ([7]; Tc concentration for 50% reduction of viability in combination with 0.1 μM Pn): 11.85 µM | CTc, 50 ([7]; Tc concentration for 50% reduction of viability in combination with 0.25 μM Pn): 5.86 µM | CTc, 50 [7, 13]: 13.42 µM | CTc, 50 ([7]; Tc concentration for 50% reduction of viability in combination with 0.5 μM Pn): 0.17 µM | CTc, 50 [7, 14]: 4.21 µM | CTc, 50 [7, 15]: 12.07 µM | CTc, 50 [7, 16]: 8.43 µM | CTc, 50 [7, 17]: 5.88 µM

Ac-YDTLGIF-NH2 [N-term-7]
inhibition to ATG4B activity at lower peptide concentration ([10]; 1 μM peptide): maintained | inhibition to ATG4B activity ([10]; ATG4B cleavage assays, 10 μM peptide): about 30%

Ac-YDTLRFAEF-NH2 [N-term-9]
inhibition to ATG4B activity at lower peptide concentration ([11]; 1 μM peptide): maintained | inhibition to ATG4B activity ([11]; ATG4B activity reporter assays, 10 μM peptide): ~25%

Ac-YDTLRFAEF-NH2 [N-term-9 (Ac-…-NH2)]
inhibition to ATG4B activity (ATG4B activity reporter assays) [12]: 25%

From patent publication US20230187019A1, “METHOD FOR DETERMINING A DRUG COMBINATION VIA A BLOCKING MODEL OF A MULTI-SITE-TARGETED PROTEIN AND APPLICATIONS THEREOF” (National Tsing Hua University, priority 2021, published 2023)
